Test system: mitochondria superoxide anion
Assay: Superoxide anion in mitochondria, MitoSOX Red
Assay type: cell-based
Conditions: human diploid fibroblast; 1 mM PQ 30 minutes; FIG. 24B
Method: The cell was treated with 1 mM of PQ for 30 minutes, and then was cultured at 37° C. for 15 minutes after adding oxidant-sensitive fluorescent dyes (A) DHE (5 uM, cytosol specific) and (B) MitoSOX (5 uM, mitochondria specific), respectively. For identifying the change of fluorescence, the excitation and emission wavelength of DHE were measured at 515 and 590 nm and MitoSOX was measured at 520 and 580 nm by using a multiwell plate reader. The results were indicated by calculating the results of three experiments as a control rate (%). The statistical significant was expressed as *, # p<0.005; ** p<0.05.
Mitochondria superoxide anion was measured by using the fluorescence material, i.e., MitoSOX Red. […] The cell was twice washed with DPBS and the fluorescence was immediately measured at excitation wavelength 515 nm and emission wavelength 590 nm by using CEFS [Cary Eclipse fluorescence spectrophotometer (Varian, Calif., USA)] machine.

Nc1ccc(S(=O)(=O)c2ccc(N)cc2)cc1 [DDS, 4,4′-diaminodiphenylsulfone]
production of superoxide anion in the mitochondria: suppresses

— patent US20110152379A1, “COMPOSITION FOR CONTROL OF AGING AND/OR EXTENSION OF LIFE, CONTAINING DAPSONE AS ACTIVE INGREDIENT” (priority 2008, published 2011)
